From US20260274807A1 (University of Health Sciences and Pharmacy in St. Louis, priority 2023, published 2026)

Key:
[1] = molecular target: T1, ERRα (Homo sapiens, UniProt P11474); assay: ERRE luciferase reporter assay in HEK293 cells transfected with pcDNA3.1 ERRα; assay type: cell-based; design: key to EC50 (ERRα) μM: * <1 μM; ** 1-5 μM; *** >5 μM; i.a. (inactive); conditions: HEK293 cells transfected with ERRE reporter construct and pcDNA3.1 ERRα; compound for 24 hours; luciferase activity
T1 construct: expressed in transfected cells; host or cells: HEK293
T1 sequence (P11474 1-423): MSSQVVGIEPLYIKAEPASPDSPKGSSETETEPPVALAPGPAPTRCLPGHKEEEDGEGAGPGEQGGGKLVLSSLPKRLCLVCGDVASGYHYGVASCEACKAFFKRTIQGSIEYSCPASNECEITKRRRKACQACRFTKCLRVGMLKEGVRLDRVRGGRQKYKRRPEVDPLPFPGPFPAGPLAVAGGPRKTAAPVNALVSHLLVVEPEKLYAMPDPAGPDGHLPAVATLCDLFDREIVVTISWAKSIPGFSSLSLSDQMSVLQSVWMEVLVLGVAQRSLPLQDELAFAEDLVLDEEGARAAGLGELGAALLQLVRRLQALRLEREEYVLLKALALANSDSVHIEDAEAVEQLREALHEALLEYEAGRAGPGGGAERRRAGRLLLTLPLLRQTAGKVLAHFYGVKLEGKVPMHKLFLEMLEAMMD
Description: (§1) HEK293 cells were maintained in Dulbecco's modified Eagles medium (DMEM) supplemented with 10% fetal bovine serum at 37° C. under […]. […] Cells were transfected with ERRE reporter construct and pcDNA3.1 ERRα or ERRγ. Twenty-four-hours post-transfection, the cells were treated with vehicle or compound (various concentrations) for 24 hours (4 wells per dose). Luciferase activity was measured using the One-Glo Tox luciferase reporter assay system (Promega) and EC50s were calculated using GraphPad Prism software.

[2] = molecular target: T2, ERRγ (Homo sapiens, UniProt P62508); assay: ERRE luciferase reporter assay in HEK293 cells transfected with pcDNA3.1 ERRγ; assay type: cell-based; design: key to EC50 (ERRγ) μM: * <1 μM; ** 1-5 μM; *** >5 μM; i.a. (inactive); conditions: HEK293 cells transfected with ERRE reporter construct and pcDNA3.1 ERRγ; compound for 24 hours; luciferase activity
T2 construct: expressed in transfected cells; host or cells: HEK293
T2 sequence (P62508 1-458): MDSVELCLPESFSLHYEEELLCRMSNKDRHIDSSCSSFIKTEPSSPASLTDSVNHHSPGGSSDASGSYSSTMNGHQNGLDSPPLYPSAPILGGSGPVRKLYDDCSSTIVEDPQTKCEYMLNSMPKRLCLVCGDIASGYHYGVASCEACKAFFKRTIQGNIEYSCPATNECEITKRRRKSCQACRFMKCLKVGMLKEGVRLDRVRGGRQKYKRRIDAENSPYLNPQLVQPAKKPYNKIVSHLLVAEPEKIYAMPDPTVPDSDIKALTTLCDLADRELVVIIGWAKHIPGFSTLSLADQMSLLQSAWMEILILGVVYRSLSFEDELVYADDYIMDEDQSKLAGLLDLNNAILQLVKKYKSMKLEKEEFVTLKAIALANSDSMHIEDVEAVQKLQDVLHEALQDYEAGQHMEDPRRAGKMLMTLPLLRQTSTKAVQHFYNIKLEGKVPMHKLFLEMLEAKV
Description: as §1

EC50 [1] | EC50 [2] | EC50 (ERRα) μM [1] | EC50 (ERRγ) μM [2] | Structure (SMILES)
1000 to 5000 nM | 1000 to 5000 nM | – | – | Cc1ccc(-c2nnc(-c3ccccc3[N+](=O)[O-])o2)o1 [Entry 76, 2-(5-methylfuran-2-yl)-5-(2-nitrophenyl)-1,3,4-oxadiazole]
> 5000 nM | > 5000 nM | – | – | COc1ccc(-c2nnc(-c3ccccc3)s2)c(N)c1 [Entry 1026, 5-methoxy-2-(5-phenyl-1,3,4-thiadiazol-2-yl)aniline]
< 1000 nM | < 1000 nM | – | – | Cc1ccc(-c2nnc(-c3cccs3)s2)cc1 [Entry 1031, 2-(thiophen-2-yl)-5-(p-tolyl)-1,3,4-thiadiazole]
< 1000 nM | < 1000 nM | – | – | FC(F)(F)c1cccc(-c2nnc(-c3ccccn3)o2)c1 [Entry 61, 2-(pyridin-2-yl)-5-(3-(trifluoromethyl)phenyl)-1,3,4-oxadiazole]
– | – | i.a. | i.a. | COc1ccc(-c2nnc(-c3ccccn3)o2)cc1 [Entry 24, 2-(4-methoxyphenyl)-5-(pyridin-2-yl)-1,3,4-oxadiazole]
1000 to 5000 nM | 1000 to 5000 nM | – | – | c1ccc(Cc2nnc(-c3ccccc3)s2)cc1 [Entry 1038, 2-benzyl-5-phenyl-1,3,4-thiadiazole]
> 5000 nM | < 1000 nM | – | – | Cc1ccc(-c2nnc(-c3ccc4ccccc4c3)s2)cc1 [Entry 1044, 2-(naphthalen-2-yl)-5-(p-tolyl)-1,3,4-thiadiazole]
< 1000 nM | < 1000 nM | – | – | c1ccc(-c2nnc(C34CC5CC(CC(C5)C3)C4)s2)cc1 [Entry 1007, 2-((1S,3S)-adamantan-1-yl)-5-phenyl-1,3,4-thiadiazole]
< 1000 nM | < 1000 nM | – | – | COc1ccc(-c2nnc(-c3ccc(OC)cc3)o2)cc1 [Entry 30, 2,5-bis(4-methoxyphenyl)-1,3,4-oxadiazole]
– | – | i.a. | i.a. | COc1ccc(-c2nnc(NC(=O)c3ccccc3)s2)cc1 [Entry 1033, N-(5-(4-methoxyphenyl)-1,3,4-thiadiazol-2-yl)benzamide]
< 1000 nM | < 1000 nM | – | – | COc1ccc(-c2nnc(-c3cccs3)s2)cc1 [Entry 1022, 2-(4-methoxyphenyl)-5-(thiophen-2-yl)-1,3,4-thiadiazole]
> 5000 nM | > 5000 nM | – | – | FC(F)(F)c1ccc(-c2nnc(-c3ccnc4ccccc34)o2)cc1 [Entry 47, 2-(quinolin-4-yl)-5-(4-(trifluoromethyl)phenyl)-1,3,4-oxadiazole]
< 1000 nM | < 1000 nM | – | – | FC(F)(F)c1cccc(-c2nnc(-c3ccccc3)o2)c1 [Entry 56, 2-phenyl-5-(3-(trifluoromethyl)phenyl)-1,3,4-oxadiazole]
< 1000 nM | < 1000 nM | – | – | Cc1ccc(-c2nnc(-c3cccc([N+](=O)[O-])c3)o2)cc1 [Entry 38, 2-(3-nitrophenyl)-5-(p-tolyl)-1,3,4-oxadiazole]
< 1000 nM | < 1000 nM | – | – | FC(F)(F)c1ccc(-c2nnc(-c3cccc4ncccc34)s2)cc1 [Entry 1062, 2-(quinolin-5-yl)-5-(4-(trifluoromethyl)phenyl)-1,3,4-thiadiazole]
< 1000 nM | < 1000 nM | – | – | Nc1ccc(-c2nnc(-c3ccccc3)o2)cc1 [Entry 70, 4-(5-phenyl-1,3,4-oxadiazol-2-yl)aniline]
1000 to 5000 nM | 1000 to 5000 nM | – | – | FC(F)(F)c1cccc(-c2nnc(-c3ccccc3)s2)c1 [Entry 1014, 2-phenyl-5-(3-(trifluoromethyl)phenyl)-1,3,4-thiadiazole]
< 1000 nM | < 1000 nM | – | – | COc1cccc(-c2nnc(-c3ccccc3)o2)c1[N+](=O)[O-] [Entry 88, 2-(3-methoxy-2-nitrophenyl)-5-phenyl-1,3,4-oxadiazole]
> 5000 nM | > 5000 nM | – | – | c1ccc(-c2ccc(Cc3nnc(-c4ccccc4)s3)cc2)cc1 [Entry 1039, 2-([1,1′-biphenyl]-4-ylmethyl)-5-phenyl-1,3,4-thiadiazole]
< 1000 nM | < 1000 nM | – | – | Cc1ccc(-c2nnc(-c3ccccc3[N+](=O)[O-])s2)cc1 [Entry 1005, 2-(2-nitrophenyl)-5-(p-tolyl)-1,3,4-thiadiazole]

EC50 [1] | EC50 [2] | EC50 (ERRα) μM [1] | EC50 (ERRγ) μM [2] | Structure (SMILES)
– | – | i.a. | i.a. | O=[N+]([O-])c1cccc(-c2nnc(-c3ccc(C(F)(F)F)cc3)o2)c1 [Entry 51, 2-(3-nitrophenyl)-5-(4-(trifluoromethyl)phenyl)-1,3,4-oxadiazole]
1000 to 5000 nM | 1000 to 5000 nM | – | – | COc1cccc(-c2nnc(-c3cccc(C(F)(F)F)c3)o2)c1 [Entry 66, 2-(3-methoxyphenyl)-5-(3-(trifluoromethyl)phenyl)-1,3,4-oxadiazole]
1000 to 5000 nM | > 5000 nM | – | – | COc1ccc([N+](=O)[O-])c(-c2nnc(-c3ccccc3)o2)c1 [Entry 87, 2-(5-methoxy-2-nitrophenyl)-5-phenyl-1,3,4-oxadiazole]
> 5000 nM | > 5000 nM | – | – | Clc1ccccc1-c1nnc(-c2nccs2)s1 [Entry 1061, 2-(2-chlorophenyl)-5-(thiazol-2-yl)-1,3,4-thiadiazole]
< 1000 nM | < 1000 nM | – | – | COc1ccc(-c2nnc(-c3ccc(Br)cc3)o2)cc1 [Entry 5]
< 1000 nM | < 1000 nM | – | – | Cc1ccccc1-c1nnc(-c2ccccc2)s1 [Entry 1015, 2-phenyl-5-(o-tolyl)-1,3,4-thiadiazole]
< 1000 nM | < 1000 nM | – | – | FC(F)(F)c1cccc(-c2nnc(-c3cccs3)o2)c1 [Entry 58, 2-(thiophen-2-yl)-5-(3-(trifluoromethyl)phenyl)-1,3,4-oxadiazole]
< 1000 nM | < 1000 nM | – | – | Cc1cccc(-c2nnc(-c3ccccc3)o2)c1[N+](=O)[O-] [Entry 89, 2-(3-methyl-2-nitrophenyl)-5-phenyl-1,3,4-oxadiazole]
< 1000 nM | < 1000 nM | – | – | O=[N+]([O-])c1ccc(-c2nnc(-c3ccccc3)o2)cc1 [Entry 7, 2-(4-nitrophenyl)-5-phenyl-1,3,4-oxadiazole]
< 1000 nM | 1000 to 5000 nM | – | – | Nc1cc(Br)ccc1-c1nnc(-c2ccccc2)o1 [Entry 72, 5-bromo-2-(5-phenyl-1,3,4-oxadiazol-2-yl)aniline]
< 1000 nM | < 1000 nM | – | – | Cc1ccc(-c2nnc(-c3ccccc3[N+](=O)[O-])o2)cc1 [Entry 37, 2-(2-nitrophenyl)-5-(p-tolyl)-1,3,4-oxadiazole]
1000 to 5000 nM | 1000 to 5000 nM | – | – | FC(F)(F)c1ccc(-c2nnc(-c3cccs3)o2)cc1 [Entry 46, 2-(thiophen-2-yl)-5-(4-(trifluoromethyl)phenyl)-1,3,4-oxadiazole]
< 1000 nM | < 1000 nM | – | – | CC(C)(C)c1ccc(-c2nnc(-c3ccccc3[N+](=O)[O-])o2)cc1 [Entry 83, 2-(4-(tert-butyl)phenyl)-5-(2-nitrophenyl)-1,3,4-oxadiazole]
< 1000 nM | < 1000 nM | – | – | COc1ccc(-c2nnc(-c3ccc(C)cc3)o2)cc1 [Entry 42, 2-(4-methoxyphenyl)-5-(p-tolyl)-1,3,4-oxadiazole]
> 5000 nM | < 1000 nM | – | – | Cc1ccc(-c2nnc(-c3ccc4ccccc4n3)s2)cc1 [Entry 1042, 2-(quinolin-2-yl)-5-(p-tolyl)-1,3,4-thiadiazole]
1000 to 5000 nM | < 1000 nM | – | – | O=[N+]([O-])c1cc(Br)ccc1-c1nnc(-c2ccccc2)s1 [Entry 1037, 2-(4-bromo-2-nitrophenyl)-5-phenyl-1,3,4-thiadiazole]
1000 to 5000 nM | 1000 to 5000 nM | – | – | FC(F)(F)c1ccc(-c2nnc(-c3ccco3)o2)cc1 [Entry 44, 2-(furan-2-yl)-5-(4-(trifluoromethyl)phenyl)-1,3,4-oxadiazole]
< 1000 nM | < 1000 nM | – | – | Cc1ccc(-c2nnc(-c3cccc4ccccc34)s2)cc1 [Entry 1043, 2-(naphthalen-1-yl)-5-(p-tolyl)-1,3,4-thiadiazole]
< 1000 nM | < 1000 nM | – | – | COc1ccccc1-c1nnc(-c2ccccc2)s1 [Entry 1013, 2-(2-methoxyphenyl)-5-phenyl-1,3,4-thiadiazole]
– | > 5000 nM | – | – | O=[N+]([O-])c1ccc(-c2nnc(-c3cccc(C(F)(F)F)c3)o2)cc1 [Entry 64, 2-(4-nitrophenyl)-5-(3-(trifluoromethyl)phenyl)-1,3,4-oxadiazole]
